{"source": "PubChem BioAssay AID2060501", "about": "(Molecular Pharmacology Branch, DTP, NCI, 2025)", "tested_on": "282377-053-R-J1-PDC complex spheroids, viability", "experiment": "Anticancer human tumor 282377-053-R-J1-PDC patient-derived colon adenocarcinoma cell line growth inhibition [GQUAD]", "settings": "for IC50: curve of first compound; for viability, T/C: stronger effect = lower value", "in_short": "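Multi-cell-type spheroids of tumor cells with HUVEC and mesenchymal stem cells, treated with drug combinations. Concentrations descend in half-log steps from near clinical Cmax, or from 10 microM where Cmax is unknown; viability read-out.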"}
{"compound": "COc1ncnc(C2CC2)c1-c1ncc2cnn(Cc3ccc(-c4nc(C(F)(F)F)cn4C(C)C)cc3)c2n1", "note": "+ Cc1cnc(CNC(=O)c2c(=O)c3ccc(N4CCCN(C)CC4)nc3n3c2sc2ccccc23)cn1;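 further: spheroids exposed to compounds for 7 days before readout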;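 on viability, T/C: percent of vehicle DMSO control viability with 100% = untreated-like growth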", "values": [{"measurement": "IC50", "setting": "second compound 0.0316 µM", "value": "> 10", "unit": "µM"}, {"measurement": "IC50", "setting": "second compound 0.1 µM", "value": "> 10", "unit": "µM"}, {"measurement": "IC50", "setting": "second compound 0.316 µM", "value": "> 10", "unit": "µM"}, {"measurement": "IC50", "setting": "second compound 1 µM", "value": "> 10", "unit": "µM"}, {"measurement": "IC50", "setting": "second compound 3.16 µM", "value": 0.865, "unit": "µM"}, {"measurement": "IC50", "setting": "second compound 10 µM", "value": "< 0.0316", "unit": "µM"}, {"measurement": "viability, T/C", "setting": "second compound 0.0316 µM, first compound 0.0316 µM", "value": 108, "unit": "%"}, {"measurement": "viability, T/C", "setting": "second compound 0.0316 µM, first compound 0.1 µM", "value": 107, "unit": "%"}, {"measurement": "viability, T/C", "setting": "second compound 0.0316 µM, first compound 0.316 µM", "value": 119, "unit": "%"}, {"measurement": "viability, T/C", "setting": "second compound 0.0316 µM, first compound 1 µM", "value": 92.6, "unit": "%"}, {"measurement": "viability, T/C", "setting": "second compound 0.0316 µM, first compound 3.16 µM", "value": 123, "unit": "%"}, {"measurement": "viability, T/C", "setting": "second compound 0.0316 µM, first compound 10 µM", "value": 95.3, "unit": "%"}, {"measurement": "viability, T/C", "setting": "second compound 0.1 µM, first compound 0.0316 µM", "value": 121, "unit": "%"}, {"measurement": "viability, T/C", "setting": "second compound 0.1 µM, first compound 0.1 µM", "value": 96.2, "unit": "%"}, {"measurement": "viability, T/C", "setting": "second compound 0.1 µM, first compound 0.316 µM", "value": 94.4, "unit": "%"}, {"measurement": "viability, T/C", "setting": "second compound 0.1 µM, first compound 1 µM", "value": 100, "unit": "%"}, {"measurement": "viability, T/C", "setting": "second compound 0.1 µM, first compound 3.16 µM", "value": 125, "unit": "%"}, {"measurement": "viability, T/C", "setting": "second compound 0.1 µM, first compound 10 µM", "value": 93.5, "unit": "%"}, {"measurement": "viability, T/C", "setting": "second compound 0.316 µM, first compound 0.0316 µM", "value": 105, "unit": "%"}, {"measurement": "viability, T/C", "setting": "second compound 0.316 µM, first compound 0.1 µM", "value": 78.3, "unit": "%"}, {"measurement": "viability, T/C", "setting": "second compound 0.316 µM, first compound 0.316 µM", "value": 71.1, "unit": "%"}, {"measurement": "viability, T/C", "setting": "second compound 0.316 µM, first compound 1 µM", "value": 76.2, "unit": "%"}, {"measurement": "viability, T/C", "setting": "second compound 0.316 µM, first compound 3.16 µM", "value": 76.5, "unit": "%"}, {"measurement": "viability, T/C", "setting": "second compound 0.316 µM, first compound 10 µM", "value": 82.3, "unit": "%"}, {"measurement": "viability, T/C", "setting": "second compound 1 µM, first compound 0.0316 µM", "value": 60.6, "unit": "%"}, {"measurement": "viability, T/C", "setting": "second compound 1 µM, first compound 0.1 µM", "value": 54.8, "unit": "%"}, {"measurement": "viability, T/C", "setting": "second compound 1 µM, first compound 0.316 µM", "value": 55.8, "unit": "%"}, {"measurement": "viability, T/C", "setting": "second compound 1 µM, first compound 1 µM", "value": 52.8, "unit": "%"}, {"measurement": "viability, T/C", "setting": "second compound 1 µM, first compound 3.16 µM", "value": 57.9, "unit": "%"}, {"measurement": "viability, T/C", "setting": "second compound 1 µM, first compound 10 µM", "value": 55.9, "unit": "%"}, {"measurement": "viability, T/C", "setting": "second compound 3.16 µM, first compound 0.0316 µM", "value": 53.3, "unit": "%"}, {"measurement": "viability, T/C", "setting": "second compound 3.16 µM, first compound 0.1 µM", "value": 49.2, "unit": "%"}, {"measurement": "viability, T/C", "setting": "second compound 3.16 µM, first compound 0.316 µM", "value": 49.2, "unit": "%"}, {"measurement": "viability, T/C", "setting": "second compound 3.16 µM, first compound 1 µM", "value": 49.7, "unit": "%"}, {"measurement": "viability, T/C", "setting": "second compound 3.16 µM, first compound 3.16 µM", "value": 52.8, "unit": "%"}, {"measurement": "viability, T/C", "setting": "second compound 3.16 µM, first compound 10 µM", "value": 47.1, "unit": "%"}, {"measurement": "viability, T/C", "setting": "second compound 10 µM, first compound 0.0316 µM", "value": 41.1, "unit": "%"}, {"measurement": "viability, T/C", "setting": "second compound 10 µM, first compound 0.1 µM", "value": 45.2, "unit": "%"}, {"measurement": "viability, T/C", "setting": "second compound 10 µM, first compound 0.316 µM", "value": 46.5, "unit": "%"}, {"measurement": "viability, T/C", "setting": "second compound 10 µM, first compound 1 µM", "value": 46.6, "unit": "%"}, {"measurement": "viability, T/C", "setting": "second compound 10 µM, first compound 3.16 µM", "value": 50.3, "unit": "%"}, {"measurement": "viability, T/C", "setting": "second compound 10 µM, first compound 10 µM", "value": 35.6, "unit": "%"}]}
